Source: article PMC11606603, “The membrane domains of mammalian adenylyl cyclases are lipid receptors” (eLife, 2024)
Values joined by “and” are separate entries in the source; they are usually repeats but may differ in a detail not shown here. Equal values may be shown once.

Molecular target: T1, HEK293 cells permanently transfected with mAC3 (Homo sapiens, UniProt O60266)
T1 construct: Human mAC genes were from GenScript and fitted with a C-terminal FLAG-tag; FLAG (C); expressed in transfected cells; host or cells: HEK293, permanently transfected
T1 sequence (O60266 1-1144): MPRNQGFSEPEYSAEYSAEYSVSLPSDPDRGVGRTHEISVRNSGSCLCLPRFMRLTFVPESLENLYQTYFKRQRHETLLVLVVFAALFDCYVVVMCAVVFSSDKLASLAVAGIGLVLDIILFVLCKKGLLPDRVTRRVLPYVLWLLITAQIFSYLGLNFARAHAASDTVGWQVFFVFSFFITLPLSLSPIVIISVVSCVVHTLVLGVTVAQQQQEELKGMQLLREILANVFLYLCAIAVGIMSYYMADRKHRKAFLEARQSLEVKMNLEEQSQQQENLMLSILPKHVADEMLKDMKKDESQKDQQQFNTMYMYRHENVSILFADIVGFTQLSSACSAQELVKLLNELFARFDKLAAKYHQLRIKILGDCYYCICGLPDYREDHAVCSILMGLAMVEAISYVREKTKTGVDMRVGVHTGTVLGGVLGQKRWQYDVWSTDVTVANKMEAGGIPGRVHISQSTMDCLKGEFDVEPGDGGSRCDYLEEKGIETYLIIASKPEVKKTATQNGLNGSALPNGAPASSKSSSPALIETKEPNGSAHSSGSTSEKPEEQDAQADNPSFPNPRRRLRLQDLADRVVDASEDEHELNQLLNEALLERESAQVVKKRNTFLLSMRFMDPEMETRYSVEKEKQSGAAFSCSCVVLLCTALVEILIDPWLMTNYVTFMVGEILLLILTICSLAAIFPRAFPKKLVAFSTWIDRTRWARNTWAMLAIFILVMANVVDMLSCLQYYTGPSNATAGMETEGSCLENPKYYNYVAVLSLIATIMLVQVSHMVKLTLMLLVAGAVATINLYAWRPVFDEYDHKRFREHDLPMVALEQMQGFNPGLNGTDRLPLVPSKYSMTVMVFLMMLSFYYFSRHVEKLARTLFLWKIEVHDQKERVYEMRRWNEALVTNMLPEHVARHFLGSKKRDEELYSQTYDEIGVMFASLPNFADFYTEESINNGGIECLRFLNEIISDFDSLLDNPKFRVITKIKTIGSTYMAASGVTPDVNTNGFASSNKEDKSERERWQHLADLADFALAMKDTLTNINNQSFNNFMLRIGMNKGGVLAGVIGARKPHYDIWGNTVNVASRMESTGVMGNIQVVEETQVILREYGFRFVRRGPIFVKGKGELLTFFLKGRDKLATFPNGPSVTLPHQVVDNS
Assay: cAMP accumulation assay, isoproterenol-stimulated HEK-mAC3 cells
Type: cell-based
Settings: for Effect on isoproterenol-stimulated cAMP formation in HEK-mAC3: in words
Protocol: hAC sequences were from NCBI were: ADCY1: NM_021116.3; ADCY2: NM_020546.2; ADCY3: NM_004036.4; ADCY4: NM_001198568.2; ADCY5: NM_183357.2; ADCY6: NM_015270.4; ADCY7: NM_001114.4; ADCY8: NM_001115.2; ADCY9: NM_001116.3. Human mAC genes were from GenScript and fitted with a C-terminal FLAG-tag. […] The gene was synthesized by GenScript. HEK293 cells were maintained in Dulbeccos Modified Eagle Medium (DMEM) with 10% fetal bovine serum at 37°C and 5% CO2. Transfection with AC plasmids was with PolyJet (SignaGen, Frederick, MD, USA). Permanent cell lines were generated by selection for 7 days with 600 µg/ml G418 and maintained with 300 µg/ml For membrane preparation, cells were tyrpsinized, collected by centrifugation (3000 × g, 5 min) and lysed and homogenized in 20 mM HEPES, pH 7.5, 1 mM Ethylenediaminetetraacetic acid (EDTA), 2 mM MgCl2, 1 mM Dithiothreitol (DTT), one tablet of cOmplete, EDTA-free (per 50 ml) and 250 mM sucrose by 20 strokes in a potter homogenizer on ice. Debris was removed (5 min at 1000 × g, 0°C), membranes were collected at 100,000 × g, 60 min at 0°C, suspended and stored at −80°C in 20 mM MOPS, pH 7.5, 0.5 mM EDTA, 2 mM MgCl2. […] Three cerebral cortices were dissected and homogenized in 4.5 ml cold 48 mM Tris–HCl, pH 7.4, 12 mM MgC1_2, and 0.1 mM Ethylene glycol-bis(β-aminoethyl ether)-N,N,N′,N′-tetraacetic acid (EGTA) with a Polytron hand disperser (Kinematica AG, Switzerland). […] The pellet was washed once with 5 ml 1 mM KHCO3. The final suspension in 2 ml 1 mM KHCO3 was stored in aliquots at −80°C.
HEK293 cells stably expressing mAC isoforms 3, 5, and mAC5(membr)_mAC3(cat) were plated at 2500–10,000 cells/well into 384-well plates. […] Addition of Cisbio HTRF detection reagents stopped the reaction and cAMP levels were determined.

| SMILES | EC50 (2.5 µM isoproterenol) [nM] | enhancement of cAMP formation in HEK-mAC3 (2.5 µM isoproterenol) [fold] | AC activity (%); 100%= 2.5µM Isoproterenol stimulation (HEK-mAC3, oleic acid 0.01 µM) [%] | AC activity (%); 100%= 2.5µM Isoproterenol stimulation (HEK-mAC3, oleic acid 0.03 µM) | AC activity (%); 100%= 2.5µM Isoproterenol stimulation (HEK-mAC3, oleic acid 0.06 µM) | AC activity (%); 100%= 2.5µM Isoproterenol stimulation (HEK-mAC3, oleic acid 0.1 µM) | AC activity (%); 100%= 2.5µM Isoproterenol stimulation (HEK-mAC3, oleic acid 0.3 µM) | AC activity (%); 100%= 2.5µM Isoproterenol stimulation (HEK-mAC3, oleic acid 0.5 µM) | AC activity (%); 100%= 2.5µM Isoproterenol stimulation (HEK-mAC3, oleic acid 0.6 µM) | AC activity (%); 100%= 2.5µM Isoproterenol stimulation (HEK-mAC3, oleic acid 3 µM) | AC activity (%); 100%= 2.5µM Isoproterenol stimulation (HEK-mAC3, oleic acid 10 µM) | AC activity (%); 100%= 2.5µM Isoproterenol stimulation (HEK-mAC3, oleic acid 50 µM) | Effect on isoproterenol-stimulated cAMP formation in HEK-mAC3 |
| --- | --- | --- | --- | --- | --- | --- | --- | --- | --- | --- | --- | --- | --- |
| CCCCCCCC/C=C\CCCCCCCC(=O)O [Oleic acid, Oleic ((9Z)-octadecenoic) acid] | 500 | 1.5 | 132 | 145% and 87% | 118% and 89% | 122% and 118% and 127% and 150% | 130% and 163% | 140% and 92% | 135% and 121% and 113% and 161% | 190% and 191% and 198% and 119% | 199% and 123% and 137% and 198% and 118% and 119% | 187% and 186% and 134% | – |
| CCCCC/C=C\C/C=C\C/C=C\C/C=C\CCCC(=O)NCCO [Anandamide, arachidonoylethanolamide] | – | – | – | – | – | – | – | – | – | – | – | – | no effect |
| CCCCCCCCCCCCCCCCCC(=O)O [Stearic acid, Stearic (octadecanoic) acid] | – | – | – | – | – | – | – | – | – | – | – | – | inactive |
